What is called NOAEL is the highest dose or exposure tested at which no adverse effect was seen.

Values joined by “and” are separate entries in the source; they are usually repeats but may differ in a detail not shown here. Equal entries are not always repeated.

Data set [1] has as its system Apis mellifera. The following applies: acute; duration: 96 hours; oral; unspecified; mortality.
The subject of data set [2] is Bibionidae. The following applies: chronic/long-term; duration: 28 days; development.
In data set [3] the test system is Anas platyrhynchos.
Data set [4] has as its system Rattus norvegicus.
In data set [5] the test system is Oncorhynchus mykiss.
For data set [6], the system named is Daphnia magna. The following applies: chronic/long-term; duration: 21 days; reproduction.
The subject of data set [7] is Tagia sp. The following applies: acute; duration: 14 days; mortality.
Data set [8] deals with Colinus virginianus.
In data set [9] the test system is Aphidius rhopalosiphi. As to the kind of experiment: LR50; higher = less toxic. The following applies: acute; duration: 48 hours; mortality.
Data set [10] concerns Typhlodromus pyri. As to the kind of experiment: LR50; higher = less toxic. The following applies: acute; duration: 7 days; mortality.

In the case of `CC(C)([CH2][Sn]([CH2]C(C)(C)c1ccccc1)([CH2]C(C)(C)c1ccccc1)[O][Sn]([CH2]C(C)(C)c1ccccc1)([CH2]C(C)(C)c1ccccc1)[CH2]C(C)(C)c1ccccc1)c1ccccc1` [Fenbutatin oxide], the LD50 is above 200 µg/piece in data set [1]; above 3000 mg/kg-day in data set [4] (acute, oral, F, mortality); above 2510 mg/kg-day in [8] (acute, oral, mortality). The NOEC in data set [2] is above 1000 mg/kg; in data set [3] (reproductive), 16.8 mg/kg-day; in [5] (chronic/long-term, duration: 62 days, growth), 0.0002 mg/L; in data set [6], 0.004 mg/L; in [8] (reproduction developmental), 14.4 mg/kg-day. Besides, the LC50 is above 968 mg/kg-day in [3] (short-term, oral, feed, mortality); 1.14 ng/mL in data set [5] (acute, duration: 96 hours, mortality); above 1000 mg/kg in data set [7]; above 1610 mg/kg-day in data set [8] (acute, oral, diet, mortality). The NOAEC in [4] (acute, inhalation, mortality) came out at 5.13 mg/kg-day. Further, the no observed adverse effect level (NOAEL) in data set [4] (chronic, duration: 2 years, clinical signs) was 5 mg/kg-day; in data set [4] (reproduction developmental, body weight), 4.5 mg/kg-day and 10 mg/kg-day. Moreover, the LR50 in data set [9] is above 85.9 g/ha; in data set [10], 468 g/ha.

The record behind these values is EPA's ToxValDB 9.5 (doi:10.2903/j.efsa.2010.1711).
